Results taken from US20230002357A1, “7-PYRIMIDINE-2-YL-OXY-INDAZOLE DERIVATIVES AND THEIR USE AS HERBICIDES” (SYNGENTA CROP PROTECTION AG, priority 2019, published 2023).

Experiments:
Type in all cases: in vivo
Conditions in all cases: 250 g/ha, evaluated after 13 days
IPOHE [1] = experiment: Post-emergence Test, glasshouse, IPOHE
Description: (§1) Seeds of a variety of test species are sown in standard soil in pots Amaranthus retoflexus (AMARE), Echinochloa crus-galli (ECHCG), Setaria faberi (SETFA)). After cultivation for one day (pre-emergence) or after 8 days cultivation (post-emergence) under controlled conditions in a glasshouse (at 24/16° C., day/night; 14 hours light; 65% humidity), the plants are sprayed with an aqueous spray solution derived from the formulation of the technical active ingredient in acetone/water (50:50) solution containing 0.5% Tween™ 20 (polyoxyethelyene sorbitan monolaurate, CAS RN 9005-64-5). Compounds are applied at 250 g/ha unless otherwise stated. The test plants are then grown in a glasshouse under controlled conditions in a glasshouse (at 24/16° C., day/night; 14 hours light; 65% humidity) and watered twice daily. After 13 days for pre- and post-emergence, the test is evaluated for the percentage damage caused to the plant. The biological activities are shown in the following table on a five-point scale (5=81-100%; 4=61-80%; 3=41-60%; 2=21-40%; 1=0-20%).

[2] = system: Echinochloa crus-galli (ECHCG); experiment: Pre-emergence Test, glasshouse, ECHCG
Description: as §1

[3] = system: Echinochloa crus-galli (ECHCG); experiment: Post-emergence Test, glasshouse, ECHCG
Description: as §1

Setaria faberi (SETFA) [4] = experiment: Pre-emergence Test, glasshouse, SETFA
Description: as §1

ABUTH [5] = experiment: Pre-emergence Test, glasshouse, ABUTH
Description: as §1

Setaria faberi (SETFA) [6] = experiment: Post-emergence Test, glasshouse, SETFA
Description: as §1

[7] = system: Amaranthus retoflexus (AMARE); experiment: Post-emergence Test, glasshouse, AMARE
Description: as §1

IPOHE [8] = experiment: Pre-emergence Test, glasshouse, IPOHE
Description: as §1

[9] = system: Amaranthus retoflexus (AMARE); experiment: Pre-emergence Test, glasshouse, AMARE
Description: as §1

ABUTH [10] = experiment: Post-emergence Test, glasshouse, ABUTH
Description: as §1

Fc1cc(Cl)cnc1Oc1cccc2cnn(CCCC(F)(F)F)c12 [Compound 1.002]
2 (2=21-40%): percentage damage caused to the plant, five-point scale, ECHCG [2] | percentage damage caused to the plant, five-point scale, SETFA (Setaria faberi (SETFA) [4]) | percentage damage caused to the plant, five-point scale, AMARE [7] | percentage damage caused to the plant, five-point scale, ABUTH (ABUTH [10])
1 (1=0-20%): percentage damage caused to the plant, five-point scale, IPOHE (IPOHE [1]) | percentage damage caused to the plant, five-point scale, ABUTH (ABUTH [5]) | percentage damage caused to the plant, five-point scale, IPOHE (IPOHE [8]) | percentage damage caused to the plant, five-point scale, AMARE [9]
3 (3=41-60%): percentage damage caused to the plant, five-point scale, ECHCG [3] | percentage damage caused to the plant, five-point scale, SETFA (Setaria faberi (SETFA) [6])

FC(F)(F)CCCn1ccc2cccc(Oc3ncc(Cl)cn3)c21 [Compound 1.003]
1 (1=0-20%): percentage damage caused to the plant, five-point scale, ECHCG [2] | percentage damage caused to the plant, five-point scale, ECHCG [3] | percentage damage caused to the plant, five-point scale, SETFA (Setaria faberi (SETFA) [4]) | percentage damage caused to the plant, five-point scale, ABUTH (ABUTH [5]) | percentage damage caused to the plant, five-point scale, SETFA (Setaria faberi (SETFA) [6]) | percentage damage caused to the plant, five-point scale, IPOHE (IPOHE [8]) | percentage damage caused to the plant, five-point scale, AMARE [9]
3 (3=41-60%): percentage damage caused to the plant, five-point scale, AMARE [7]
2 (2=21-40%): percentage damage caused to the plant, five-point scale, IPOHE (IPOHE [1]) | percentage damage caused to the plant, five-point scale, ABUTH (ABUTH [10])

Fc1cc(Cl)cnc1Oc1cccc2ccn(CCCC(F)(F)F)c12 [Compound 1.004]
1 (1=0-20%): percentage damage caused to the plant, five-point scale, ECHCG [2] | percentage damage caused to the plant, five-point scale, ECHCG [3] | percentage damage caused to the plant, five-point scale, ABUTH (ABUTH [5]) | percentage damage caused to the plant, five-point scale, SETFA (Setaria faberi (SETFA) [6]) | percentage damage caused to the plant, five-point scale, IPOHE (IPOHE [8]) | percentage damage caused to the plant, five-point scale, AMARE [9] | percentage damage caused to the plant, five-point scale, ABUTH (ABUTH [10])
3 (3=41-60%): percentage damage caused to the plant, five-point scale, AMARE [7]
2 (2=21-40%): percentage damage caused to the plant, five-point scale, IPOHE (IPOHE [1]) | percentage damage caused to the plant, five-point scale, SETFA (Setaria faberi (SETFA) [4])

FC(F)(F)CCCn1nc(Cl)c2cccc(Oc3ncc(Cl)cn3)c21 [Compound 1.005, 3-chloro-7-(5-chloropyrimidin-2-yl)oxy-1-(4,4,4-trifluorobutyl)indazole]
5 (5=81-100%): percentage damage caused to the plant, five-point scale, ECHCG [2] | percentage damage caused to the plant, five-point scale, ECHCG [3] | percentage damage caused to the plant, five-point scale, SETFA (Setaria faberi (SETFA) [4]) | percentage damage caused to the plant, five-point scale, SETFA (Setaria faberi (SETFA) [6]) | percentage damage caused to the plant, five-point scale, AMARE [7] | percentage damage caused to the plant, five-point scale, AMARE [9] | percentage damage caused to the plant, five-point scale, ABUTH (ABUTH [10])
3 (3=41-60%): percentage damage caused to the plant, five-point scale, IPOHE (IPOHE [1]) | percentage damage caused to the plant, five-point scale, ABUTH (ABUTH [5])
1 (1=0-20%): percentage damage caused to the plant, five-point scale, IPOHE (IPOHE [8])

FC(F)(F)CCCn1nc(Br)c2cccc(Oc3ncc(Cl)cn3)c21 [Compound 1.006, 3-bromo-7-(5-chloropyrimidin-2-yl)oxy-1-(4,4,4-trifluorobutyl)indazole]
1 (1=0-20%): percentage damage caused to the plant, five-point scale, IPOHE (IPOHE [8])
5 (5=81-100%): percentage damage caused to the plant, five-point scale, ECHCG [2] | percentage damage caused to the plant, five-point scale, ECHCG [3] | percentage damage caused to the plant, five-point scale, SETFA (Setaria faberi (SETFA) [4]) | percentage damage caused to the plant, five-point scale, AMARE [7] | percentage damage caused to the plant, five-point scale, AMARE [9] | percentage damage caused to the plant, five-point scale, ABUTH (ABUTH [10])
2 (2=21-40%): percentage damage caused to the plant, five-point scale, IPOHE (IPOHE [1]) | percentage damage caused to the plant, five-point scale, ABUTH (ABUTH [5])
4 (4=61-80%): percentage damage caused to the plant, five-point scale, SETFA (Setaria faberi (SETFA) [6])

N#Cc1nn(CCCC(F)(F)F)c2c(Oc3ncc(Cl)cn3)cccc12 [Compound 1.007, 7-(5-chloropyrimidin-2-yl)oxy-1-(4,4,4-trifluorobutyl)indazole-3-carbonitrile]
2 (2=21-40%): percentage damage caused to the plant, five-point scale, IPOHE (IPOHE [8])
3 (3=41-60%): percentage damage caused to the plant, five-point scale, ABUTH (ABUTH [5])
5 (5=81-100%): percentage damage caused to the plant, five-point scale, ECHCG [2] | percentage damage caused to the plant, five-point scale, ECHCG [3] | percentage damage caused to the plant, five-point scale, SETFA (Setaria faberi (SETFA) [4]) | percentage damage caused to the plant, five-point scale, SETFA (Setaria faberi (SETFA) [6]) | percentage damage caused to the plant, five-point scale, AMARE [7] | percentage damage caused to the plant, five-point scale, AMARE [9] | percentage damage caused to the plant, five-point scale, ABUTH (ABUTH [10])
4 (4=61-80%): percentage damage caused to the plant, five-point scale, IPOHE (IPOHE [1])
